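How tested: cells in 96-well plates exposed to compound for 48 hours at five concentrations. The concentration for 50% growth inhibition is given as GI50. At the TGI there is no net growth.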
Assays:
Experiment in all cases: NCI anticancer screen, dose series, 48 h; in the data active = GI50 below about 0.43 µM; inactive = the rest
[1] = tested on: SF-268 CNS
[2] = tested on: SK-MEL-5 melanoma
[3] = tested on: SNB-19 CNS
[4] = tested on: MALME-3M melanoma
[5] = tested on: COLO 205 colon
[6] = tested on: NCI-H23 lung
[7] = tested on: NCI-H226 lung
[8] = tested on: OVCAR-3 ovarian
[9] = tested on: MOLT-4 leukemia
[10] = tested on: CAKI-1 renal
[11] = tested on: SK-OV-3 ovarian
[12] = tested on: A498 renal
[13] = tested on: OVCAR-4 ovarian
[14] = tested on: HOP-92 NSCLC
[15] = tested on: SNB-75 CNS
[16] = tested on: MCF7 breast
[17] = tested on: MDA-MB-435
[18] = tested on: SR leukemia
[19] = tested on: UACC-257 melanoma
[20] = tested on: LOX IMVI melanoma
[21] = tested on: ACHN renal
[22] = tested on: RXF 393 renal
[23] = tested on: M14 melanoma
[24] = tested on: SW-620 colon
[25] = tested on: HT29 colon
[26] = tested on: SK-MEL-28 melanoma
[27] = tested on: HCT-116 colon
[28] = tested on: CCRF-CEM leukemia
[29] = tested on: HOP-62 NSCLC
[30] = tested on: A549 NSCLC
[31] = tested on: NCI/ADR-RES ovarian
[32] = tested on: HCC-2998 colon
[33] = tested on: SN12C renal
[34] = tested on: T-47D breast
[35] = tested on: U251 CNS
[36] = tested on: BT-549 breast
[37] = tested on: SF-295 CNS
[38] = tested on: K-562 leukemia
[39] = tested on: SF-539 CNS
[40] = tested on: UO-31 renal
[41] = tested on: KM12 colon
[42] = tested on: MDA-MB-231 breast
[43] = tested on: 786-0 renal
[44] = tested on: OVCAR-5 ovarian
[45] = tested on: OVCAR-8 ovarian
[46] = tested on: NCI-H460 lung
[47] = tested on: NCI-H522 lung
[48] = tested on: UACC-62 melanoma
[49] = tested on: RPMI-8226 leukemia
[50] = tested on: HS 578T breast
[51] = tested on: HL-60(TB) leukemia
[52] = tested on: PC-3 prostate
[53] = tested on: DU-145 prostate
[54] = tested on: HCT-15 colon
[55] = tested on: IGROV1 ovarian
[56] = tested on: SK-MEL-2 melanoma
[57] = tested on: TK-10 renal

COc1ccc(-c2c(-c3cc(OC)c(OC)c(OC)c3)nc3sc(C4CC4)nn23)cc1OC
72 µM: TGI [9]
9 µM: TGI [14]
58.3 µM: TGI [54]
20.2 µM: TGI [5]
7.84 µM: TGI [12]
40.4 µM: TGI [48]
90.5 µM: TGI [40]
69 µM: TGI [11]
> 100 µM: TGI [1] | TGI [3] | TGI [6] | TGI [7] | TGI [8] | TGI [10] | TGI [13] | TGI [15] | TGI [16] | TGI [17] | TGI [18] | TGI [19] | TGI [20] | TGI [23] | TGI [24] | TGI [25] | TGI [26] | TGI [27] | TGI [28] | TGI [29] | TGI [30] | TGI [31] | TGI [32] | TGI [33] | TGI [35] | TGI [36] | TGI [37] | TGI [38] | TGI [39] | TGI [41] | TGI [42] | TGI [43] | TGI [44] | TGI [45] | TGI [46] | TGI [50] | TGI [52] | TGI [53] | TGI [55]
19.6 µM: TGI [49]
50.8 µM: TGI [56]
42.6 µM: TGI [21]
inactive: GI50 [1] 32.8 µM | GI50 [2] 2.39 µM | GI50 [3] 9.04 µM | GI50 [4] 18.1 µM | GI50 [5] 3.11 µM | GI50 [6] 11.6 µM | GI50 [7] 16.3 µM | GI50 [8] 7.11 µM | GI50 [9] 9.94 µM | GI50 [10] 0.943 µM | GI50 [11] 2.9 µM | GI50 [12] 0.75 µM | GI50 [13] 3.26 µM | GI50 [14] 0.58 µM | GI50 [15] 0.641 µM | GI50 [16] 1.96 µM | GI50 [17] 6.81 µM | GI50 [18] 3.73 µM | GI50 [19] 9.68 µM | GI50 [20] 3.27 µM | GI50 [21] 2.99 µM | GI50 [22] 5.46 µM | GI50 [23] 6.42 µM | GI50 [24] 13.2 µM | GI50 [25] 3.48 µM | GI50 [26] 5.83 µM | GI50 [27] 4.79 µM | GI50 [28] 7.81 µM | GI50 [29] 1.58 µM | GI50 [30] 8.29 µM | GI50 [31] 7.35 µM | GI50 [32] 12.3 µM | GI50 [33] 10.7 µM | GI50 [34] 1.51 µM | GI50 [35] 8.15 µM | GI50 [36] 10.2 µM | GI50 [37] 6.11 µM | GI50 [38] 10 µM | GI50 [39] 5.62 µM | GI50 [40] 1.42 µM | GI50 [41] 17.5 µM | GI50 [42] 2.72 µM | GI50 [43] 4.66 µM | GI50 [44] 6.18 µM | GI50 [45] 6.13 µM | GI50 [46] 11.9 µM | GI50 [47] 1.7 µM | GI50 [48] 1.94 µM | GI50 [49] 3 µM | GI50 [50] 4.19 µM | GI50 [51] 1.68 µM | GI50 [52] 9.66 µM | GI50 [53] 51.3 µM | GI50 [54] 2.42 µM | GI50 [55] 5.28 µM | GI50 [56] 7.52 µM | GI50 [57] 2.6 µM
30.5 µM: TGI [34]
40 µM: TGI [47]
75.2 µM: TGI [4]
15 µM: TGI [2]
41.6 µM: TGI [51]
37.3 µM: TGI [57]
43 µM: TGI [22]
